From patent US12637437B2, “Herbicidal compounds” (SYNGENTA CROP PROTECTION AG, priority 2021, dated 2026)

Tests used:
Format in all cases: in vivo
[1] = tested on: Amaranthus retoflexus (AMARE); test: Post-emergence herbicidal glasshouse test, AMARE; parameters: dose or concentration left out as unconfirmed; conditions: evaluated after 13 days, five-point scale
Description: (§1) Seeds of a variety of test species are sown in standard soil in pots (Lolium perenne (LOLPE), Amaranthus retoflexus (AMARE), Abutilon theophrasti (ABUTH), Setaria faberi (SETFA), Echinochloa crus-galli (ECHCG), Ipomoea hederacea (IPOHE)). After cultivation for one day (pre-emergence) or after 8 days cultivation (post-emergence) under controlled conditions in a glasshouse (at 24/16° C., day/night; 14 hours light; 65% humidity), the plants are sprayed with an aqueous spray solution derived from the formulation of the technical active ingredient in acetone/water (50:50) solution containing 0.5% Tween 20 (polyoxyethelyene sorbitan monolaurate, CAS RN 9005-64-5). Compounds are applied at 125 g/h unless otherwise indicated. The test plants are then grown in a glasshouse under controlled conditions in a glasshouse (at 24/16° C., day/night; 14 hours light; 65% humidity) and watered twice daily. After 13 days for pre and post-emergence, the test is evaluated for the percentage damage caused to the plant. The biological activities are shown in the following table on a five-point scale (5=80-100%; 4=60-79%; 3=40-59%; 2=20-39%; 1=0-19%). “—” denotes not tested on this species or data not captured.

[2] = tested on: Abutilon theophrasti (ABUTH); test: Post-emergence herbicidal glasshouse test, ABUTH; conditions: 125 g/h, evaluated after 13 days, five-point scale
Description: as §1

Setaria faberi (SETFA) [3] = test: Post-emergence herbicidal glasshouse test, SETFA; conditions: 125 g/h, evaluated after 13 days, five-point scale
Description: as §1

[4] = tested on: Echinochloa crus-galli (ECHCG); test: Post-emergence herbicidal glasshouse test, ECHCG; conditions: 125 g/h, evaluated after 13 days, five-point scale
Description: as §1

[5] = tested on: Ipomoea hederacea (IPOHE); test: Post-emergence herbicidal glasshouse test, IPOHE; conditions: 125 g/h, evaluated after 13 days, five-point scale
Description: as §1

[6] = tested on: Amaranthus retoflexus (AMARE); test: Pre-emergence herbicidal glasshouse test, AMARE; conditions: 125 g/h, evaluated after 13 days, five-point scale
Description: as §1

[7] = tested on: Abutilon theophrasti (ABUTH); test: Pre-emergence herbicidal glasshouse test, ABUTH; conditions: 125 g/h, evaluated after 13 days, five-point scale
Description: as §1

Setaria faberi (SETFA) [8] = test: Pre-emergence herbicidal glasshouse test, SETFA; conditions: 125 g/h, evaluated after 13 days, five-point scale
Description: as §1

[9] = tested on: Echinochloa crus-galli (ECHCG); test: Pre-emergence herbicidal glasshouse test, ECHCG; conditions: 125 g/h, evaluated after 13 days, five-point scale
Description: as §1

[10] = tested on: Ipomoea hederacea (IPOHE); test: Pre-emergence herbicidal glasshouse test, IPOHE; conditions: 125 g/h, evaluated after 13 days, five-point scale
Description: as §1

| SMILES | percentage damage caused to the plant, POST Application AMARE [1] | percentage damage caused to the plant, POST Application ABUTH [2] | percentage damage caused to the plant, POST Application SETFA (Setaria faberi (SETFA) [3]) | percentage damage caused to the plant, POST Application ECHCG [4] | percentage damage caused to the plant, POST Application IPOHE [5] | percentage damage caused to the plant, PRE Application AMARE [6] | percentage damage caused to the plant, PRE Application ABUTH [7] | percentage damage caused to the plant, PRE Application SETFA (Setaria faberi (SETFA) [8]) | percentage damage caused to the plant, PRE Application ECHCG [9] | percentage damage caused to the plant, PRE Application IPOHE [10] |
| --- | --- | --- | --- | --- | --- | --- | --- | --- | --- | --- |
| COC(=O)Nc1c(OC(F)(F)F)ccc(C(=O)Nc2nnnn2C)c1Cl [Compound 1.001] | 5 (5=80-100%) | 5 (5=80-100%) | 5 (5=80-100%) | 5 (5=80-100%) | 5 (5=80-100%) | 5 (5=80-100%) | 5 (5=80-100%) | 5 (5=80-100%) | 5 (5=80-100%) | 3 (3=40-59%) |
| CCOC(=O)Nc1c(OC(F)(F)F)ccc(C(=O)Nc2nnnn2C)c1Cl [Compound 1.002, ethyl N-[2-chloro-3-[(1-methyltetrazol-5-yl)carbamoyl]-6-(trifluoromethoxy)phenyl]carbamate] | 4 (4=60-79%) | 4 (4=60-79%) | 4 (4=60-79%) | 4 (4=60-79%) | 4 (4=60-79%) | 5 (5=80-100%) | 5 (5=80-100%) | 4 (4=60-79%) | 5 (5=80-100%) | 5 (5=80-100%) |
| CCn1nnnc1NC(=O)c1ccc(OC(F)(F)F)c(NC(=O)OC)c1Cl [Compound 1.003] | 4 (4=60-79%) | 4 (4=60-79%) | 4 (4=60-79%) | 4 (4=60-79%) | 4 (4=60-79%) | 5 (5=80-100%) | 5 (5=80-100%) | 5 (5=80-100%) | 5 (5=80-100%) | 4 (4=60-79%) |
| CCOC(=O)Nc1c(OC(F)(F)F)ccc(C(=O)Nc2nnnn2CC)c1Cl [Compound 1.004] | 4 (4=60-79%) | 4 (4=60-79%) | 4 (4=60-79%) | 4 (4=60-79%) | 4 (4=60-79%) | 5 (5=80-100%) | 5 (5=80-100%) | 3 (3=40-59%) | 5 (5=80-100%) | 4 (4=60-79%) |
| COC(=O)Nc1c(OC(F)F)ccc(C(=O)Nc2nnnn2C)c1Cl [Compound 1.005] | 5 (5=80-100%) | 5 (5=80-100%) | 5 (5=80-100%) | 5 (5=80-100%) | 5 (5=80-100%) | 5 (5=80-100%) | 5 (5=80-100%) | 4 (4=60-79%) | 5 (5=80-100%) | 4 (4=60-79%) |
| COCCOC(=O)Nc1c(OC(F)(F)F)ccc(C(=O)Nc2nnnn2C)c1Cl [Compound 1.006] | 5 (5=80-100%) | 5 (5=80-100%) | 4 (4=60-79%) | 4 (4=60-79%) | 4 (4=60-79%) | 4 (4=60-79%) | 5 (5=80-100%) | 4 (4=60-79%) | 5 (5=80-100%) | 4 (4=60-79%) |
| CC(C)OC(=O)Nc1c(OC(F)(F)F)ccc(C(=O)Nc2nnnn2C)c1Cl [Compound 1.007] | 4 (4=60-79%) | 5 (5=80-100%) | 4 (4=60-79%) | 4 (4=60-79%) | 4 (4=60-79%) | 5 (5=80-100%) | 5 (5=80-100%) | 4 (4=60-79%) | 5 (5=80-100%) | 4 (4=60-79%) |
| CCOC(=O)Nc1c(OC(F)F)ccc(C(=O)Nc2nnnn2C)c1Cl [Compound 1.008] | 4 (4=60-79%) | 4 (4=60-79%) | 4 (4=60-79%) | 4 (4=60-79%) | 4 (4=60-79%) | 5 (5=80-100%) | 5 (5=80-100%) | 4 (4=60-79%) | 5 (5=80-100%) | 4 (4=60-79%) |
| Cn1nnnc1NC(=O)c1ccc(OC(F)F)c(N2CCOC2=O)c1Cl [Compound 1.037] | 5 (5=80-100%) |  | 5 (5=80-100%) | 5 (5=80-100%) | 5 (5=80-100%) | 5 (5=80-100%) |  | 5 (5=80-100%) | 5 (5=80-100%) | 5 (5=80-100%) |
| CCOC(=O)N(C)c1c(OC(F)F)ccc(C(=O)Nc2nnnn2C)c1Cl [Compound 1.041] | 5 (5=80-100%) |  | 5 (5=80-100%) | 5 (5=80-100%) | 5 (5=80-100%) | 5 (5=80-100%) |  | 4 (4=60-79%) | 5 (5=80-100%) | 4 (4=60-79%) |
| COC(=O)N(C)c1c(OC(F)F)ccc(C(=O)Nc2nnnn2C)c1Cl [Compound 1.042] | 5 (5=80-100%) |  | 5 (5=80-100%) | 5 (5=80-100%) | 5 (5=80-100%) | 5 (5=80-100%) |  | 5 (5=80-100%) | 5 (5=80-100%) | 4 (4=60-79%) |
| CCN(C(=O)OC)c1c(OC(F)F)ccc(C(=O)Nc2nnnn2C)c1Cl [Compound 1.043] | 5 (5=80-100%) |  | 5 (5=80-100%) | 5 (5=80-100%) | 4 (4=60-79%) | 5 (5=80-100%) |  | 5 (5=80-100%) | 5 (5=80-100%) | 3 (3=40-59%) |
| CCOC(=O)N(CC)c1c(OC(F)F)ccc(C(=O)Nc2nnnn2C)c1Cl [Compound 1.044] | 5 (5=80-100%) |  | 5 (5=80-100%) | 5 (5=80-100%) | 4 (4=60-79%) | 5 (5=80-100%) |  | 4 (4=60-79%) | 5 (5=80-100%) | 2 (2=20-39%) |
